This is an account of results in patent US5380825A (Sigma Chemical Company, priority 1991, dated 1995).

Values after ≈ are worked out from the molar mass of the structure shown.

Holding throughout (format): binding
One assay concerns AZT antibodies. As to the kind of experiment: Immunological activity / tracer performance in FPIA for AZT (qualitative). To be noted: for inhibition in FPIA for AZT: inhibitor of polarization. As for the experimental part:
(§1) An equal volume of precipitation reagent was added per microcentrifuge tube. The tubes were centrifuged at greater than 9,000×g for 1 minute.
(§2) (2) A 17.5 ul sample of each serum extract was brought to approximately pH 7-8 by the addition of buffer.
(§3) (4) After an appropriate incubation time, the polarization of each reaction mixture was determined using a polarization spectrofluorimeter.

For assay [1], the system named is antisera to AZT, Rabbit 1 (immunized with AZT-3-V:BSA). As to the kind of experiment: FPIA comparison of tracers, antiserum of Rabbit 1 (Table 1). To be noted: for Polarization Units (P × 1000): 1 pmole of tracer, antiserum at the given titer; for ED50 AZT: concentration of AZT giving 50% reduction in polarization of this tracer relative to 0 tube; for Titer [Ab]: dilution of antiserum required to obtain the given polarization units with 1 pmole of tracer. As for the experimental part:
(§4) The immunogen (1 mg in 1 ml) was emulsified with an equal volume of Freund's Complete Adjuvant and injected intradermally into each of two female albino rabbits. The process was repeated in two weeks. Two weeks later, monthly subcutaneous booster injections were begun with 0.5 mg in 0.5 ml of the immunogen and 0.5 ml of Freund's Incomplete Adjuvant per animal. The rabbits were bled biweekly by a marginal ear vein technique beginning six weeks after the primary immunization. The blood collected was refrigerated, allowing clots to form, and the supernatant (antiserum) retained. The antiserum from each rabbit was collected and stored, either at -20° C. without preservative, or at 4° C. after addition of sodium azide to a final concentration of 0.1%. The same schedule was followed for each immunogen. Rabbits immunized produced antibodies to AZT.
(§5) Fluorescence Polarization Immunoassay for AZT
as §1, §2, §3
(§6) As further illustration of the invention polyclonal antibodies were raised in two rabbits by immunization with the conjugate of Example 4 (AZT-3-V:BSA) as is more fully described in Example 45 and stored at 4° C. with 0.1% sodium azide. A number of tracers were then compared as to their performance in FPIA using the antisera raised from two rabbits.
(§7) ^(1) TITER was defined as the dilution of antiserum (i.e., [Ab])
(§8) required to obtain the given polarization units (P × 1000) with 1
(§9) required to give a 50% reduction in polarization relative to a control (0
(§10) tube) containing no unlabeled AZT.

In assay [2] the test system is antisera to AZT, Rabbit 2 (immunized with AZT-3-V:BSA). As to the kind of experiment: FPIA comparison of tracers, antiserum of Rabbit 2 (Table 1). Conditions: for Polarization Units (P × 1000): 1 pmole of tracer, antiserum at the given titer; for ED50 AZT: concentration of AZT giving 50% reduction in polarization of this tracer relative to 0 tube; for Titer [Ab]: dilution of antiserum required to obtain the given polarization units with 1 pmole of tracer. Here is the method:
as §4, §5, §1, §2, §3, §6, §7, §8, §9, §10

Regarding “3-carbethoxy-3'-azido-3'-deoxythymidine [Example 21]”, the “immunological activity in FPIA for AZT” value in the assay on AZT antibodies (qualitative) was “immunologically active”. In addition, the “"cross-reactivity" relative to AZT in an AZT assay by FPIA” value in the assay with AZT antibodies (relative to AZT) was “approximately 110%”.
Regarding `Cc1cn([C@H]2C[C@H](N=[N+]=[N-])[C@@H](CO)O2)c(=O)n(CCNc2nc(Cl)nc(Nc3ccc4c(c3)C(=O)OC43c4ccc(O)cc4Oc4cc(O)ccc43)n2)c1=O` [AZT--(CH2)n --NH:DTAF, n=2], in assay [1], the “Polarization Units (P × 1000)” value is on record as 162 P × 1000, the “ED50 AZT” value is 4.0 µg/mL (≈ 5.2 µM) and the “Titer [Ab]” value came out at 250. Further, in assay [2], the “Polarization Units (P × 1000)” value worked out at 156 P × 1000, the “ED50 AZT” value is > 8.0 µg/mL and the “Titer [Ab]” value worked out at 125.
Regarding `Cc1cn([C@H]2C[C@H](N=[N+]=[N-])[C@@H](CO)O2)c(=O)n(CCCCC(=O)Nc2ccc3c(c2)C(=O)OC32c3ccc(O)cc3Oc3cc(O)ccc32)c1=O` [Example 6], in assay [1], the “Polarization Units (P × 1000)” value stood at 179 P × 1000, the “ED50 AZT” value is 4.0 µg/mL (≈ 5.74 µM) and the “Titer [Ab]” value is reported as 300. Besides, in assay [2], the “Polarization Units (P × 1000)” value was found to be 175 P × 1000, the “ED50 AZT” value was 8.0 µg/mL (≈ 11.5 µM) and the “Titer [Ab]” value was found to be 130. Besides, the “immunological activity in FPIA for AZT” value with AZT antibodies (qualitative) was “immunologically active”.
As to `Cc1cn([C@H]2C[C@H](N=[N+]=[N-])[C@@H](CO)O2)c(=O)n(CCCCC(=O)NCCNC(=S)Nc2ccc3c(c2)C(=O)OC32c3ccc(O)cc3Oc3cc(O)ccc32)c1=O` [Example 7, 5-[[5-(3'-azido-3'-deoxythymid-3-yl)-valeramido]-ethylthiocarbamyl]-fluorescein], the “Titer [Ab]” value in assay [1] is listed as 1. In assay [2], the “Polarization Units (P × 1000)” value is reported as 197 P × 1000, the “ED50 AZT” value is > 8.0 µg/mL and the “Titer [Ab]” value is on record as 3.
For `Cc1cn([C@H]2C[C@H](N=[N+]=[N-])[C@@H](CO)O2)c(=O)n(CCCC(=O)Nc2ccc3c(c2)C(=O)OC32c3ccc(O)cc3Oc3cc(O)ccc32)c1=O` [Example 13, 5-[4-(3'-azido-3'-deoxythymid-3-yl)-butyramido]-fluorescein], in assay [1], the “Polarization Units (P × 1000)” value worked out at 170 P × 1000, the “ED50 AZT” value was 1.3 µg/mL (≈ 1.9 µM) and the “Titer [Ab]” value was 450. In assay [2], the “Polarization Units (P × 1000)” value is on record as 179 P × 1000, the “ED50 AZT” value was determined as 3.9 µg/mL (≈ 5.71 µM) and the “Titer [Ab]” value came to 115. For the same molecule, the “affinity and sensitivity as tracer” value in the assay on AZT antibodies (qualitative) was “satisfactory affinity and sensitivity”.
Consider `Cc1cn([C@H]2C[C@H](N=[N+]=[N-])[C@@H](CO)O2)c(=O)n(CCCC(=O)Nc2ccc3c(c2)C2(OC3=O)c3ccc(O)cc3Oc3cc(O)ccc32)c1=O` [Example 14, 6-[4-(3'-azido-3'-deoxythymid-3-yl)-butyramido]-fluorescein], for which, in assay [1], the “Polarization Units (P × 1000)” value turned out to be 167 P × 1000, the “ED50 AZT” value was 0.6 µg/mL (≈ 0.879 µM) and the “Titer [Ab]” value is 150. Further, in assay [2], the “Polarization Units (P × 1000)” value is given as 159 P × 1000, the “ED50 AZT” value is 1.4 µg/mL (≈ 2.05 µM) and the “Titer [Ab]” value turned out to be 74.
`Cc1cn([C@H]2C[C@H](N=[N+]=[N-])[C@@H](CO)O2)c(=O)n(CCCC(=O)NCCNC(=S)Nc2ccc3c(c2)C(=O)OC32c3ccc(O)cc3Oc3cc(O)ccc32)c1=O` [Example 15, 5-[[4-(3'-azido-3'-deoxythymid-3-yl)-butyramido]-ethylthiocarbamyl]-fluorescein]: in assay [1], the “Polarization Units (P × 1000)” value amounted to 165 P × 1000, the “ED50 AZT” value worked out at 4.0 µg/mL (≈ 5.1 µM) and the “Titer [Ab]” value is given as 200. For the same molecule, in assay [2], the “Polarization Units (P × 1000)” value was found to be 184 P × 1000, the “ED50 AZT” value was determined as 4.0 µg/mL (≈ 5.1 µM) and the “Titer [Ab]” value is recorded as 73. Further, the “immunological activity in FPIA for AZT” value in the assay on AZT antibodies (qualitative) was “Immunological activity against AZT was confirmed”.
As to `COC(=O)C(Cc1ccc(O)cc1)NC(=O)CCCn1c(=O)c(C)cn([C@H]2C[C@H](N=[N+]=[N-])[C@@H](CO)O2)c1=O` (stereo partly shown) [Example 16, 2-[4-(3'-azido-3'-deoxythymid-3-yl)-butyramido]-3-(4-hydroxyphenyl)-propionic acid methyl ester], in the assay on AZT antibodies (qualitative), the “immunological activity in FPIA for AZT” value is on record as “immunologically active”.
Consider `COc1nc(NCCn2c(=O)c(C)cn([C@H]3C[C@H](N=[N+]=[N-])[C@@H](CO)O3)c2=O)nc(Nc2ccc3c(c2)C(=O)OC32c3ccc(O)cc3Oc3cc(O)ccc32)n1` [Example 17, 3-[2-[4-(Fluoresceinyl-5)-6-methoxy-s-triazin-2-yl]aminoethyl]-3'-azido-3'-deoxythymidine], for which, in assay [1], the “Polarization Units (P × 1000)” value stood at 160 P × 1000, the “ED50 AZT” value came out at 2.5 µg/mL (≈ 3.27 µM) and the “Titer [Ab]” value is given as 190. Moreover, in assay [2], the “Polarization Units (P × 1000)” value stood at 179 P × 1000, the “ED50 AZT” value came to 4.9 µg/mL (≈ 6.41 µM) and the “Titer [Ab]” value worked out at 100. Further, the “immunological activity in FPIA for AZT” value with AZT antibodies (qualitative) is “immunologically active”.
In the case of `Cc1cn([C@H]2C[C@H](N=[N+]=[N-])[C@@H](CO)O2)c(=O)n(CCCC(=O)NCC(=O)N[C@@H](Cc2ccc(O)cc2)C(=O)O)c1=O` [Example 18, N-[4-(3'-azido-3'-deoxythymid-3-yl)-butyryl]-glycyl-L-tyrosine], the “immunological activity in FPIA for AZT” value in the assay on AZT antibodies (qualitative) was “immunologically active”.
Still for that read-out and setting: the value for `Cc1cn([C@H]2C[C@H](N=[N+]=[N-])[C@@H](CO)O2)c(=O)n(CC(=O)O)c1=O` [Example 19, 3-carboxymethyl-3'-azido-3'-deoxythymidine] was “immunological activity”.
With `Cc1cn([C@H]2C[C@H](N=[N+]=[N-])[C@@H](CO)O2)c(=O)n(CC(=O)Nc2ccc3c(c2)C(=O)OC32c3ccc(O)cc3Oc3cc(O)ccc32)c1=O` [Example 22, 5-[2-(3'-azido-3'-deoxythymid-3-yl)-acetamido]-fluorescein], in assay [1], the “Polarization Units (P × 1000)” value amounted to 164 P × 1000, the “ED50 AZT” value worked out at 1.4 µg/mL (≈ 2.14 µM) and the “Titer [Ab]” value is 150. Also, in assay [2], the “Polarization Units (P × 1000)” value came to 150 P × 1000, the “ED50 AZT” value was 2.0 µg/mL (≈ 3.06 µM) and the “Titer [Ab]” value is listed as 105.
With `Cc1cn([C@H]2C[C@H](N=[N+]=[N-])[C@@H](CO)O2)c(=O)n(CC(=O)NCCNC(=S)Nc2ccc3c(c2)C(=O)OC32c3ccc(O)cc3Oc3cc(O)ccc32)c1=O` [Example 23, 5-[[2-(3'-azido-3'-deoxythymid-3-yl)-acetamido]-ethylthiocarbamyl]-fluorescein], in assay [1], the “Polarization Units (P × 1000)” value amounted to 173 P × 1000, the “ED50 AZT” value turned out to be 2.4 µg/mL (≈ 3.17 µM) and the “Titer [Ab]” value worked out at 53. In addition, in assay [2], the “Polarization Units (P × 1000)” value worked out at 164 P × 1000, the “ED50 AZT” value was determined as 1.4 µg/mL (≈ 1.85 µM) and the “Titer [Ab]” value turned out to be 28.
On to `Cc1cn([C@H]2C[C@H](N=[N+]=[N-])[C@@H](CO)O2)c(=O)n(CCCN2C(=O)c3ccccc3C2=O)c1=O` [Example 26, 3-(3-phthalimidopropyl)-3'-azido-3'-deoxythymidine], for which, in the assay with AZT antibodies (qualitative), the “immunological activity in FPIA for AZT” value is “immunologically active”.
Take `Cc1cn([C@H]2C[C@H](N=[N+]=[N-])[C@@H](CO)O2)c(=O)n(CCCN)c1=O` [Example 28, 3-(3-aminopropyl)-3'-azido-3'-deoxythymidine]: in the assay on AZT antibodies (qualitative), the “immunological activity in FPIA for AZT” value is “immunologically active”.
Regarding `Cc1cn([C@H]2C[C@H](N=[N+]=[N-])[C@@H](CO)O2)c(=O)n(CCNC(=O)CCc2ccc(O)cc2)c1=O` [Example 33, 3-[2-[3-(4-hydroxyphenyl)-propionamido]-ethyl]-3'-azido-3'-deoxythymidine], the “inhibition in FPIA for AZT” value with AZT antibodies (qualitative) is listed as “effective inhibitor of polarization”.
With `Cc1cn([C@H]2C[C@H](N=[N+]=[N-])[C@@H](CO)O2)c(=O)n(CCCNC(=S)Nc2ccc3c(c2)C2(OC3=O)c3cc(I)c(O)c(I)c3Oc3c2cc(I)c(O)c3I)c1=O` [Example 36, 6-[3-(3 '-amido-3'-deoxythymid-3-yl)-propyl-thiocarbamyl]-erythrosin], the “immunological activity in FPIA for AZT” value with AZT antibodies (qualitative) is listed as “immunologically active”.
The same measure, in the same setting: the entry for `Cc1cn([C@H]2C[C@H](N=[N+]=[N-])[C@@H](COC(=O)CCC(=O)NCCNC(=S)Nc3ccc4c(c3)C(=O)OC43c4ccc(O)cc4Oc4cc(O)ccc43)O2)c(=O)[nH]c1=O` [Example 42] is “Immunoactivity of this label was demonstrated”.
With `O=C(O)CCc1ccc(O)cc1` [HPPA, 3-(4-hydroxyphenyl)propionic acid, reference compound], in the assay with AZT antibodies (qualitative), the “inhibition in FPIA for AZT” value was “unlike 3-(4-hydroxyphenyl)propionic acid (HPPA), was an effective inhibitor of polarization”.
